This note sets out measurements from patent EP2766361B1, “8-CARBAMOYL-2-(2,3-DISUBSTITUTED PYRID-6-YL)-1,2,3,4-TETRAHYDROISOQUINOLINE DERIVATIVES AS APOPTOSIS-INDUCING AGENTS FOR THE TREATMENT OF CANCER AND IMMUNE AND AUTOIMMUNE DISEASES” (priority 2011, dated 2013).

The test system of test [1] is mouse FL5.12 cells transfected with Bcl-xL. Put plainly: FL5.12 cellular assay (cell viability, CellTiter-Glo). Type of test: cell-based. The conditions noted are these: IL-3-depleted, 3% FBS assay media, 24 hours, read-out: FL5.12 Bcl-xL, -IL3, EC50. The method, then:
Cell viability was assayed using the CellTiter-Glo assay (Promega Corp., Madison, WI) according to the manufacturer instructions. Individual determinations were the result of duplicate values. […] Table 2. In Vitro Data
For orientation: ATP-based viability assays read luminescence as a measure of living cells.

Test [2] deals with Molt-4 human acute lymphoblastic leukemia cells. Put plainly: Molt-4 cellular assay (cell viability, MTS). The test is classed as cell-based. The settings on record: 10% human serum, 48 hours. The method, then: Molt-4 (ATCC, Manassas, VA) human acute lymphoblastic leukemia cells were plated 50,000 cells per well in 96-well tissue culture plates in a total volume of 100 µL tissue culture medium supplemented with 10% human serum (Invitrogen, Carlsbad, CA) and treated with a 3-fold serial dilution of the compounds of interest from 5 µM to […]. Each concentration was tested in duplicate at least 3 separate times. The number of viable cells following 48 hours of compound treatment was determined using the CellTiter 96® Aqueous non-radioactive cell proliferation MTS assay according to manufacturer's recommendations (Promega Corp., Madison, WI).

Take `O=C(Nc1nc2ccccc2s1)c1cccc2c1CN(c1ccc(-c3cnn(CC45CC6CC(CC(C6)C4)C5)c3)c(C(=O)O)n1)CC2` [Example 1, 6-[8-(1,3-benzothiazol-2-ylcarbamoyl)-3,4-dihydroisoquinolin-2(1H)-yl]-3-{1-[tricyclo[3.3.1.1^3,7]dec-1-ylmethyl]-1H-pyrazol-4-yl}pyridine-2-carboxylic acid]: the figures for the EC50 in test [1] and in test [2] were 39 nM and 201 nM, respectively. In the case of `O=C(Nc1nc2ccccc2s1)c1cccc2c1CN(c1ccc(-c3cnn(CC4C5CC6CC(C5)CC4C6)c3)c(C(=O)O)n1)CC2` (stereo not drawn) [Example 10, 6-[8-(1,3-benzothiazol-2-ylcarbamoyl)-3,4-dihydroisoquinolin-2(1H)-yl]-3-[1-(tricyclo[3.3.1.1^3,7]dec-2-ylmethyl)-1H-pyrazol-4-yl]pyridine-2-carboxylic acid], the EC50 in test [1] amounted to 29 nM; in test [2], 487 nM. With `Cc1c(-c2ccc(N3CCc4cccc(C(=O)Nc5nc6ccccc6s5)c4C3)nc2C(=O)O)cc(C#N)n1CC12CC3CC(CC(C3)C1)C2` [Example 23, 6-[8-(1,3-benzothiazol-2-ylcarbamoyl)-3,4-dihydroisoquinolin-2(1H)-yl]-3-[5-cyano-2-methyl-1-(tricyclo[3.3.1.1^3,7]dec-1-ylmethyl)-1H-pyrrol-3-yl]pyridine-2-carboxylic acid], the EC50 is less than 1 nM in test [1] and 16 nM in test [2].

As for `Cc1c(OC23CC4CC(CC(C4)C2)C3)cccc1-c1ccc(N2CCc3cccc(C(=O)Nc4nc5ccccc5s4)c3C2)nc1C(=O)O` [Example 28, 6-[8-(1,3-benzothiazol-2-ylcarbamoyl)-3,4-dihydroisoquinolin-2(1H)-yl]-3-{2-methyl-3-[tricyclo[3.3.1.1^3,7]dec-1-yloxy]phenyl}pyridine-2-carboxylic acid], the EC50 is 22 nM in test [1] and 526 nM in test [2]. For the compound `COCCOC12CC3CC(CC(Cn4ncc(-c5ccc(N6CCc7cccc(C(=O)Nc8nc9ccccc9s8)c7C6)nc5C(=O)O)c4C)(C3)C1)C2` [Example 45, 6-[8-(1,3-benzothiazol-2-ylcarbamoyl)-3,4-dihydroisoquinolin-2(1H)-yl]-3-(1-{[3-(2-methoxyethoxy)tricyclo[3.3.1.1^3,7]dec-1-yl]methyl}-5-methyl-1H-pyrazol-4-yl)pyridine-2-carboxylic acid], the EC50 was found to be 0.9 nM in test [1] and 4 nM in test [2]. With `Cc1c(-c2ccc(N3CCc4cccc(C(=O)Nc5nc6ccccc6s5)c4C3)nc2C(=O)O)cccc1N(C)C(=O)C12CC3CC(CC(C3)C1)C2` [Example 52, 6-[8-(1,3-benzothiazol-2-ylcarbamoyl)-3,4-dihydroisoquinolin-2(1H)-yl]-3-(2-methyl-3-{methyl[tricyclo[3.3.1.1^3,7]dec-1-ylcarbonyl]amino}phenyl)pyridine-2-carboxylic acid], the results for the EC50 in test [1] and in test [2] were 3 nM and 29 nM, respectively. Consider `Cc1c(-c2ccc(N3CCc4cccc(C(=O)Nc5nc6ccccc6s5)c4C3)nc2C(=O)O)ccnc1SC12CC3CC(CC(C3)C1)C2` [Example 74, 6-[8-(1,3-benzothiazol-2-ylcarbamoyl)-3,4-dihydroisoquinolin-2(1H)-yl]-3'-methyl-2'-(tricyclo[3.3.1.1^3,7]dec-1-ylsulfanyl)-3,4'-bipyridine-2-carboxylic acid], for which, in test [1], the concentration giving a half-maximal response (EC50) worked out at 7 nM. As to `Cc1c(-c2ccc(N3CCc4cccc(C(=O)Nc5nc6cccnc6s5)c4C3)nc2C(=O)NS(C)(=O)=O)cnn1CC12CC3CC(CC(C3)C1)C2` [Example 75, 2-{6-[(methylsulfonyl)carbamoyl]-5-[5-methyl-1-(tricyclo[3.3.1.1^3,7]dec-1-ylmethyl)-1H-pyrazol-4-yl]pyridin-2-yl}-N-([1,3]thiazolo[5,4-b]pyridin-2-yl)-1,2,3,4-tetrahydroisoquinoline-8-carboxamide], the EC50 in test [1] turned out to be 3 nM. With `Cc1c(-c2ccc(N3CCc4cccc(C(=O)Nc5nc6ccccc6s5)c4C3)nc2C(=O)O)ccnc1NC12CC3CC(CC(C3)C1)C2` [Example 76, 6-[8-(1,3-benzothiazol-2-ylcarbamoyl)-3,4-dihydroisoquinolin-2(1H)-yl]-3'-methyl-2'-(tricyclo[3.3.1.1^3,7]dec-1-ylamino)-3,4'-bipyridine-2-carboxylic acid], in test [1], the EC50 worked out at 71 nM. As for `Cc1c(-c2ccc(N3CCc4cccc(C(=O)Nc5cn6ncccc6n5)c4C3)nc2C(=O)O)cnn1CC12CC3CC(CC(C3)C1)C2` [Example 77, 6-[8-(imidazo[1,2-b]pyridazin-2-ylcarbamoyl)-3,4-dihydroisoquinolin-2(1H)-yl]-3-[5-methyl-1-(tricyclo[3.3.1.1^3,7]dec-1-ylmethyl)-1H-pyrazol-4-yl]pyridine-2-carboxylic acid], the EC50 in test [1] is 4 nM.

As to `Cc1c(-c2ccc(N3CCc4cccc(C(=O)Nc5nc6ccncc6s5)c4C3)nc2C(=O)O)cnn1CC12CC3CC(CC(C3)C1)C2` [Example 78, 3-[5-methyl-1-(tricyclo[3.3.1.1^3,7]dec-1-ylmethyl)-1H-pyrazol-4-yl]-6-[8-([1,3]thiazolo[5,4-c]pyridin-2-ylcarbamoyl)-3,4-dihydroisoquinolin-2(1H)-yl]pyridine-2-carboxylic acid], the EC50 in test [1] stood at 3 nM. In the case of `COC1(Cn2ncc(-c3ccc(N4CCc5cccc(C(=O)Nc6nc7ccccc7s6)c5C4)nc3C(=O)O)c2C)CCCC2(CC2)C1` (stereo not drawn) [Example 79, 6-[8-(1,3-benzothiazol-2-ylcarbamoyl)-3,4-dihydroisoquinolin-2(1H)-yl]-3-{1-[(5-methoxyspiro[2.5]oct-5-yl)methyl]-5-methyl-1H-pyrazol-4-yl}pyridine-2-carboxylic acid], the EC50 in test [1] stood at 0.9 nM.

For the compound `COCCOCCOCCOC12CC3CC(CC(Cn4ncc(-c5ccc(N6CCc7cccc(C(=O)Nc8nc9ccccc9s8)c7C6)nc5C(=O)O)c4C)(C3)C1)C2` [Example 80, 6-[8-(1,3-benzothiazol-2-ylcarbamoyl)-3,4-dihydroisoquinolin-2(1H)-yl]-3-(1-{[3-{2-[2-(2-methoxyethoxy)ethoxy]ethoxy}tricyclo[3.3.1.1^3,7]dec-1-yl]methyl}-5-methyl-1H-pyrazol-4-yl)pyridine-2-carboxylic acid], the 50% effective concentration (EC50) in test [1] is 1 nM. Regarding `O=C(Nc1nc2ccccc2s1)c1cccc2c1CN(c1ccc(-c3cnn(CC4CC5CCC(C4)N5C(=O)OCc4ccccc4)c3)c(C(=O)O)n1)CC2` (stereo not drawn) [Example 84, 6-[8-(1,3-benzothiazol-2-ylcarbamoyl)-3,4-dihydroisoquinolin-2(1H)-yl]-3-[1-({8-[(benzyloxy)carbonyl]-8-azabicyclo[3.2.1]oct-3-yl}methyl)-1H-pyrazol-4-yl]pyridine-2-carboxylic acid], the EC50 in test [1] was more than 1000 nM. For `O=C(Nc1nc2ccccc2s1)c1cccc2c1CN(c1ccc(-c3ccc(=O)n(CC45CC6CC(CC(C6)C4)C5)c3)c(C(=O)O)n1)CC2` [Example 85, 6-[8-(1,3-benzothiazol-2-ylcarbamoyl)-3,4-dihydroisoquinolin-2(1H)-yl]-6'-oxo-1'-(tricyclo[3.3.1.1^3,7]dec-1-ylmethyl)-1',6'-dihydro-3,3'-bipyridine-2-carboxylic acid], the EC50 in test [1] was found to be 111 nM.

The term EC50 denotes the concentration that produces a half-maximal response.
